The record followed here is article PMC9189904, “Functional Properties of Two Distinct PTH1R Mutants Associated With Either Skeletal Defects or Pseudohypoparathyroidism” (JBMR Plus, 2022).

What all share (assay type): cell-based
The target in experiment [1] is T1, PTH1R‐V204E (Homo sapiens, UniProt Q03431, V204E).
T1 construct: expressed in transfected cells; plasmid TG-928 made by VectorBuilder
T1 sequence (Q03431 27-593 E90Y/S91D/E92V/E93P/K95Y/E96A/V204E): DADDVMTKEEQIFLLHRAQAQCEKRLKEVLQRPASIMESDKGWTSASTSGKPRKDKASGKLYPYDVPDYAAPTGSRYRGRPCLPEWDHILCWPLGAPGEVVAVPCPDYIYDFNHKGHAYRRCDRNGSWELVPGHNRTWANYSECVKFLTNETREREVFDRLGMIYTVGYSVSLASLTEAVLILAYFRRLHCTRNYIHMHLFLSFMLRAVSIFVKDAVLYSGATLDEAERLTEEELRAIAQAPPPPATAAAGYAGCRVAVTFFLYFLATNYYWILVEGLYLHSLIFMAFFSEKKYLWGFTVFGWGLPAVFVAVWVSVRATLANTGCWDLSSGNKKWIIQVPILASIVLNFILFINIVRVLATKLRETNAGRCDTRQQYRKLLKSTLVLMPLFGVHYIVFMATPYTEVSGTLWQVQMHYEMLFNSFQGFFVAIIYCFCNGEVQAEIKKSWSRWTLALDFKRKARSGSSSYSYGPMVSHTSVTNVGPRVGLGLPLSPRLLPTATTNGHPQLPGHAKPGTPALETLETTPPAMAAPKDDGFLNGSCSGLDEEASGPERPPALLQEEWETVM
Briefly: Fluorescence microscopy of PTH(1-34)TMR-PTH1R complexes in GS-22a cells, ImageJ analysis. Particulars: ligand 30nM, means of six cells, representative experiment. The method, then:
(§1) PTH analog binding to WT and mutant PTH1Rs was assessed by fluorescence microscopy in transiently transfected GS‐22A cells as described.^( [30], [31] ^) Briefly, the cells were transfected in six‐well plates, reseeded at 24 hours onto coverslips in six‐well plates, and at 48 hours posttransfection processed for analysis. The plates were placed on ice and the cells on coverslips were rinsed with cold HB. Then 1.0 mL of HB was then added to each well, followed by Alexafluor‐488‐labeled mouse monoclonal anti‐HA immunoglobulin G (IgG) antibody (BioLegend; Cat. No. 901509) at a concentration of 1 μg/mL, and the plate was incubated at 4°C for 1 hour. […] The plate was then shifted to room temperature and incubations continued for 30 minutes. The mixtures were then removed, the cells were rinsed twice with HB, fixed for 5 minutes in 3.7% paraformaldehyde buffer (Boston BioProducts, Inc., Ashland, MA, USA; Cat. No. BM‐158), rinsed with HB, then mounted on a glass microscope slide in Vectashield media containing 4′,6‐diamidino‐2‐phenylindole (DAPI) (Vector Laboratories, Burlingame, CA, USA; Cat. No. H1500) and imaged at magnification ×400 using a Nikon Eclipse fluorescence microscope equipped with a CCD camera configured with SPOT imaging software (Nikon, Tokyo, Japan). Regions of interest were digitally expanded 5× or 7× in PowerPoint software (Microsoft Corp., Redmond, WA, USA).
(§2) Fluorescent microscopy images were analyzed using ImageJ software, ver. […] The freehand tool was used to define the area analyzed for each cell, and the Measure>Analyze Particle tool was used to obtain the number of particles, the total area and the mean grayscale (intensity) of each particle for each cell. For each cell, the number of particles was divided by the total area to obtain the Particles/Total Area.

For experiment [2], the target named is T2, PTH1R‐WT (Homo sapiens, UniProt Q03431).
T2 construct: expressed in transfected cells; plasmid TG-906 made by VectorBuilder
T2 sequence (Q03431 27-593 E90Y/S91D/E92V/E93P/K95Y/E96A): T1 sequence (Q03431 27-593 E90Y/S91D/E92V/E93P/K95Y/E96A/V204E) with E178V
The experiment is described as above. Particulars: ligand 30nM, 30 min 4°C then 30 min room temperature, means of six cells, representative experiment. On the procedure:
as §1, §2

Experiment [3] has as its target T3, PTH1R‐R186H (Homo sapiens, UniProt Q03431, R186H).
T3 construct: expressed in transfected cells; plasmid TG-907 made by VectorBuilder
T3 sequence (Q03431 27-593 E90Y/S91D/E92V/E93P/K95Y/E96A/R186H): T1 sequence (Q03431 27-593 E90Y/S91D/E92V/E93P/K95Y/E96A/V204E) with R160H, E178V
Described as above. To be noted: ligand 30nM, means of six cells, representative experiment. The method, then:
as §1, §2

In experiment [4] the target is T1, PTH1R‐V204E. Briefly: β-arrestin2-YFP recruitment by fluorescence microscopy in GBR-24 cells, ImageJ analysis. Particulars: ligand 30nM. The method, then: (§3) Recruitment of β‐arrestin was assessed in GBR‐24 cells (HEK293/GloSensor (GS‐22A)‐derived cells stably expressing β‐arrestin2^YFP)^( [30] ^) that were transiently transfected to express PTH1R‐WT or a mutant derivative.
as §2

The next experiment has as its target T4, PTH1R‐P132L (Homo sapiens, UniProt Q03431, P132L).
T4 construct: expressed in transfected cells; plasmid TG-395 in pCDNA1
T4 sequence (Q03431 27-593 E90Y/S91D/E92V/E93P/K95Y/E96A/P132L): T1 sequence (Q03431 27-593 E90Y/S91D/E92V/E93P/K95Y/E96A/V204E) with P106L, E178V
The description is as above. To be noted: ligand 30nM. The method, then: as §3, §2

Experiment [5] concerns the target T2, PTH1R‐WT. The description is as above. To be noted: ligand 30nM. The method, then: as §3, §2
Experiment [6] has as its target T3, PTH1R‐R186H. The experiment is described as above. Particulars: ligand 30nM. The method, then:
as §3, §2

The mark [7] stands for this setting: GBR24 cells, means of six cells.
[8] abbreviates: GBR-24 cells, 30 min, a representative cell.

Positions count from the first letter of the chain named.

Consider “tetramethylrhodamine (TMR)‐^ n L ^8,21‐rat‐PTH(1‐34) [PTH(1‐34)^TMR]”, for which the “Particles /Total Area” value on PTH1R‐V204E [1] amounted to 826 ± 78; on PTH1R‐WT [2] it was 1011 ± 57; at PTH1R‐R186H [3], 1162 ± 95. Also, the “Particles/Total Area (βArrestinYFP-ligand complexes)” value on PTH1R‐V204E [4] (setting [7]) stood at 496 ± 44; at PTH1R‐P132L (setting [7]), 223 ± 66; on PTH1R‐WT [5] (GBR24 cells, 30 min room temperature, means of six cells, representative experiment), 704 ± 22; on PTH1R‐R186H [6] (setting [7]) it was 603 ± 81. Further, the “Pearson correlation coefficient (R), colocalization of ligand with β-arrestin2YFP” value at PTH1R‐V204E [4] (setting [8]) stood at 0.69; on PTH1R‐WT [5] (setting [8]), 0.97; on PTH1R‐R186H [6] (setting [8]), 0.86. In addition, the “ligand binding and β-arrestin2YFP recruitment (microscopy signal)” value at PTH1R‐P132L (GBR-24 cells, 30 min (Fig. 4A)) is given as “Only faint signal”.
